This is an account of results in patent publication US12661342B2, “Heteroaryl compounds and therapeutic uses thereof in conditions associated with the alteration of the activity of beta-glucocerebrosidase” (GT GAIN THERAPEUTICS SA, priority 2019, dated 2026).

For the assay, the target named is T1, β-glucocerebrosidase (Homo sapiens, UniProt P04062, L483P).
T1 construct: host or cells: human Gaucher disease patient fibroblasts GM08760A
T1 sequence (P04062 40-536 L483P): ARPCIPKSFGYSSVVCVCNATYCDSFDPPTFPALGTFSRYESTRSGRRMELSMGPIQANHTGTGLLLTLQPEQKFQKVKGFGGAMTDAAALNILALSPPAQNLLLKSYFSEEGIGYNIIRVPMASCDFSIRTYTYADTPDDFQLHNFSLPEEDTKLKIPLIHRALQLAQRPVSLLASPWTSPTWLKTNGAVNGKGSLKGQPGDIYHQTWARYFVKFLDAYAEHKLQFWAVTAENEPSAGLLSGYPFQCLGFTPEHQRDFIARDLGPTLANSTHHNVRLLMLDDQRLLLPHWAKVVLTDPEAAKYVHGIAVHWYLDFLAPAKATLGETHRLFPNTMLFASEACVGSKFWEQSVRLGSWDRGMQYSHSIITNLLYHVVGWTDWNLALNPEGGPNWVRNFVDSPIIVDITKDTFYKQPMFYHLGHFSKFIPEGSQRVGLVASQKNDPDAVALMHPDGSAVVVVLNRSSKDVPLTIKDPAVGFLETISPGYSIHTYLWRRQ
The assay is described as follows: Enhancement of β-glucocerebrosidase activity measured in Gaucher disease fibroblasts (4-MU-β-D-glucopyranoside substrate, intact cells). Format: cell-based. The arrangement: key: Increase in comparison with non-treated of >2.0 fold is shown as A; Increase in comparison with non-treated of >1.7-2.0 fold is shown as B; Increase in comparison with non-treated of 1.2-1.7 fold is shown as C; D means that no increase compared with non-treated cells was detected in this method. To be noted: GBA fibroblasts bearing L444P (GM08760A, homozygous p.L444P); compound at concentrations between 6 and 50 μM; 4 days incubation. The procedure: Human fibroblasts from a patient with Gaucher disease homozygous for p.L444P mutation (GM08760A) were purchased from Coriell Institute for Medical Research (Camden, NJ, USA).
Fibroblasts were seeded at 5×10^3 cells per well in 96-well cell culture plates (Corning, NY, USA) in Dulbecco's Modified Eagle's Media (DMEM) supplemented with 10% of fetal bovine serum (FBS), 1% penicillin/streptomycin (P/S) (Thermo Fisher Scientific, Waltham, MA, USA) and grown at 37° C., 5% CO2 overnight for cell attachment. Subsequently, cells were incubated in the absence or presence of the compounds at the desired concentration for 4 days. After incubation, cells were washed twice with phosphate-buffered saline (PBS) and enzyme activity assay was performed.
β-glucocerebrosidase activity in intact cultured cells was measured by using 4-methylumbelliferyl-β-D-glucopyranoside substrate (Apollo Scientific, UK). Briefly, cells were incubated with 4-MU-β-D-glucopyranoside in 0.1 M acetate buffer pH=4 at 37° C. for 1 hour. The reaction was stopped by adding 200 μL at 100 mM glycine-NaOH pH=10.7. The liberated 4-MU was measured on a GloMax Discover plate reader (Promega, Madison, WI, USA) with and excitation at 340 nm and emission at 460 nm. Enzyme activities were expressed in treated cells as X-fold increase in comparison with non-treated cells (X=1 represents no enhancement).
The capacity of the compounds of the disclosure to produce an increase in enzyme activity in GBA fibroblasts bearing L444P at concentrations between 6 and 50 μM is denoted as follows: • Increase in comparison with non-treated of >2.0 fold is shown as A • Increase in comparison with non-treated of >1.7-2.0 fold is shown as B • Increase in comparison with non-treated of 1.2-1.7 fold is shown as C • D means that no increase compared with non-treated cells was detected in this method • ND means “not determined”

For `Nc1cc(C(=O)N2CCN(c3ccccc3)CC2)nc(Nc2ccccc2O)n1` [Example 1, (6-Amino-2-((2-hydroxyphenyl)amino)pyrimidin-4-yl)(4-phenylpiperazin-1-yl)methanone], the “Range: increase in enzyme activity in comparison with non-treated cells (Enzyme activity assay for exemplified compounds)” value is reported as “C (Increase in comparison with non-treated of 1.2-1.7 fold is shown as C)”. For the compound `COc1cccc(Nc2nc(N)cc(C(=O)N3CCN(c4ccccc4)CC3)n2)c1` [Example 2, (6-Amino-2-((3-methoxyphenyl)amino)pyrimidin-4-yl)(4-phenylpiperazin-1-yl)methanone], the “Range: increase in enzyme activity in comparison with non-treated cells (Enzyme activity assay for exemplified compounds)” value is given as “C (Increase in comparison with non-treated of 1.2-1.7 fold is shown as C)”. As to `Cc1ccc(Nc2nc(N)cc(C(=O)N3CCN(c4ccccc4)CC3)n2)cc1` [Example 3, (6-Amino-2-(p-tolylamino)pyrimidin-4-yl)(4-phenylpiperazin-1-yl)methanone], the “Range: increase in enzyme activity in comparison with non-treated cells (Enzyme activity assay for exemplified compounds)” value was “C (Increase in comparison with non-treated of 1.2-1.7 fold is shown as C)”.

Regarding `CN(Cc1ccccc1)C(=O)c1cc(N)nc(Nc2ccccc2O)n1` [Example 4, 6-Amino-N-benzyl-2-((2-hydroxyphenyl)amino)-N-methylpyrimidine-4-carboxamide], the “Range: increase in enzyme activity in comparison with non-treated cells (Enzyme activity assay for exemplified compounds)” value was “C (Increase in comparison with non-treated of 1.2-1.7 fold is shown as C)”. Under `CN(C(=O)c1cc(N)nc(Nc2ccccc2O)n1)c1ccccc1` [Example 5, 6-Amino-2-((2-hydroxyphenyl)amino)-N-methyl-N-phenylpyrimidine-4-carboxamide] stands “C (Increase in comparison with non-treated of 1.2-1.7 fold is shown as C)”. Under `Cc1ccc(Nc2nc(N)cc(C(=O)N(C)c3ccccc3)n2)cc1` [Example 6, 6-Amino-N-methyl-N-phenyl-2-(p-tolylamino)pyrimidine-4-carboxamide] stands “D”.

Take `COc1cccc(Nc2nc(N)cc(C(=O)N(C)c3ccccc3)n2)c1` [Example 7, 6-Amino-2-((3-methoxyphenyl)amino)-N-methyl-N-phenylpyrimidine-4-carboxamide]: the “Range: increase in enzyme activity in comparison with non-treated cells (Enzyme activity assay for exemplified compounds)” value is reported as “D”. Under `Nc1cc(C(=O)N2Cc3ccccc3C2)nc(Nc2ccccc2O)n1` [Example 8, (6-Amino-2-((2-hydroxyphenyl)amino)pyrimidin-4-yl)(isoindolin-2-yl)methanone] stands “C (Increase in comparison with non-treated of 1.2-1.7 fold is shown as C)”; under `CN(C(=O)c1cc(N)nc(Nc2ccccc2O)n1)C1Cc2ccccc2C1` [Example 10, 6-Amino-N-(2,3-dihydro-1H-inden-2-yl)-2-((2-hydroxyphenyl)amino)-N-methylpyrimidine-4-carboxamide], “C (Increase in comparison with non-treated of 1.2-1.7 fold is shown as C)”. The entry for `Nc1cc(C(=O)Nc2ccccc2)nc(Nc2ccccc2O)n1` [Example 11, 6-Amino-2-((2-hydroxyphenyl)amino)-N-phenylpyrimidine-4-carboxamide] is “B (Increase in comparison with non-treated of >1.7-2.0 fold is shown as B)”; for `Nc1cc(C(=O)NC2CCc3ccccc3C2)nc(Nc2ccccc2O)n1` (centres unmarked) [Example 12, 6-Amino-2-((2-hydroxyphenyl)amino)-N-(1,2,3,4-tetrahydronaphthalen-2-yl)pyrimidine-4-carboxamide] it is “B (Increase in comparison with non-treated of >1.7-2.0 fold is shown as B)”; for `Nc1cc(C(=O)NC2Cc3ccccc3C2)nc(Nc2ccccc2O)n1` [Example 13, 6-Amino-N-(2,3-dihydro-1H-inden-2-yl)-2-((2-hydroxyphenyl)amino)pyrimidine-4-carboxamide] it is “C (Increase in comparison with non-treated of 1.2-1.7 fold is shown as C)”. Under `Nc1cc(C(=O)N2CCN(c3ccccc3)CC2)nc(N[C@H]2CCCC[C@@H]2O)n1` [Example 14, (6-Amino-2-(((1S,2S)-2-hydroxycyclohexyl)amino)pyrimidin-4-yl)(4-phenylpiperazin-1-yl)methanone] stands “D”; under `CN(Cc1ccccc1)C(=O)c1cc(N)nc(N[C@H]2CCCC[C@@H]2O)n1` [Example 15, 6-Amino-N-benzyl-2-(((1S,2S)-2-hydroxycyclohexyl)amino)-N-methylpyrimidine-4-carboxamide], “D”; under `Nc1nc(Nc2cccc(Br)c2)nc(C(=O)N2CCN(c3ccccc3)CC2)n1` [Example 16, (4-Amino-6-((3-bromophenyl)amino)-1,3,5-triazin-2-yl)(4-phenylpiperazin-1-yl)methanone], “C (Increase in comparison with non-treated of 1.2-1.7 fold is shown as C)”. For `CN(Cc1ccccc1)C(=O)c1nc(N)nc(Nc2cccc(Br)c2)n1` [Example 17, 4-Amino-N-benzyl-6-((3-bromophenyl)amino)-N-methyl-1,3,5-triazine-2-carboxamide], the “Range: increase in enzyme activity in comparison with non-treated cells (Enzyme activity assay for exemplified compounds)” value was “D”. Under `CN(C(=O)c1nc(N)nc(Nc2cccc(Br)c2)n1)c1ccccc1` [Example 18, 4-Amino-6-((3-bromophenyl)amino)-N-methyl-N-phenyl-1,3,5-triazine-2-carboxamide] stands “D”; under `Nc1nc(Nc2cccc(Br)c2)nc(C(=O)NC2CCc3ccccc3C2)n1` (centres unmarked) [Example 19, 4-Amino-6-((3-bromophenyl)amino)-N-(1,2,3,4-tetrahydronaphthalen-2-yl)-1,3,5-triazine-2-carboxamide], “C (Increase in comparison with non-treated of 1.2-1.7 fold is shown as C)”.

As for `COc1ccccc1Nc1nc(N)nc(C(=O)NC2CCc3ccccc3C2)n1` (centres unmarked) [Example 20, 4-Amino-6-((2-methoxyphenyl)amino)-N-(1,2,3,4-tetrahydronaphthalen-2-yl)-1,3,5-triazine-2-carboxamide], the “Range: increase in enzyme activity in comparison with non-treated cells (Enzyme activity assay for exemplified compounds)” value is reported as “C (Increase in comparison with non-treated of 1.2-1.7 fold is shown as C)”. Under `Cc1ccc(Nc2nc(N)cc(C(=O)N(C)Cc3ccccc3)n2)cc1` [Example 21, 6-Amino-N-benzyl-N-methyl-2-(p-tolylamino)pyrimidine-4-carboxamide] stands “C (Increase in comparison with non-treated of 1.2-1.7 fold is shown as C)”; under `Cc1ccc(Nc2nc(N)cc(C(=O)NC3CCc4ccccc4C3)n2)cc1` (centres unmarked) [Example 22, 6-Amino-N-(1,2,3,4-tetrahydronaphthalen-2-yl)-2-(p-tolylamino)pyrimidine-4-carboxamide], “A (Increase in comparison with non-treated of >2.0 fold is shown as A)”. Regarding `COc1cccc(Nc2nc(N)nc3c2CCN(Cc2ccccc2)C3)c1` [Example 23, 7-Benzyl-N4-(3-methoxyphenyl)-5,6,7,8-tetrahydropyrido[3,4-d]pyrimidine-2,4-diamine], the “Range: increase in enzyme activity in comparison with non-treated cells (Enzyme activity assay for exemplified compounds)” value was “C (Increase in comparison with non-treated of 1.2-1.7 fold is shown as C)”. The entry for `COc1ccccc1Nc1nc(N)nc2c1CCN(Cc1ccccc1)C2` [Example 24, 7-Benzyl-N4-(2-methoxyphenyl)-5,6,7,8-tetrahydropyrido[3,4-d]pyrimidine-2,4-diamine] is “C (Increase in comparison with non-treated of 1.2-1.7 fold is shown as C)”.
